Experimental data published in US8541607B2, “Disulfide, sulfide, sulfoxide, and sulfone derivatives of cyclic sugars and uses thereof” (Lacer, S.A., priority 2003, dated 2013).
Counter-ions that a name gives are not always drawn. Like-named read-outs stand apart in the source and are kept apart here.

Columns and labels:
[1] = system: heart (AVP-induced coronary vasoconstriction); assay: In vivo protection against ischemia-reperfusion damage in the heart (arginine-vasopressin induced S-wave depression); details: p.o.; for S-wave decrement: 1 h before AVP 0.3 U/kg, vehicle 46.2 ± 4.9
Protocol: Experiments were performed according to the model previously described by Hirata Y at al (Journal of Cardiovascular Pharmacology, 1998, 31: 322-326)
After a food fasting period of 6 hours, animals were divided into groups of at least 8 animals each. Doses of products were given by oral sounding 1 h before the ischemia induction. Animals were anaesthetized with pentobarbital (40 mg/kg, i.p.) and the standard limb lead II electrocardiogram was recorded to detect the S-wave depression. 0.3 U/kg arginine-vasopressin (AVP) (Sigma Chemicals, St Louis, Mo., USA) was injected into the carotid artery to induce vasoconstriction of small coronary arteries and increase in coronary resistance. In all the groups received AVP 60 min after, the test drug. In all groups, after AVP injection of 10 minutes ECG recording was performed.
The results are shown in table 16 and are expressed as S-wave decrements (μvolts).

arterial rings = assay: Test of vasorelaxation on arterial rings contracted with phenylephrine; type: cell-based; details: read-out: EC50 (vasodilatation equal to 50% of the maximum tone)
Protocol: The method used in the assays is substantially the same as described in following references: • * Furchgot, R. F., “Methods in nitric oxide research”; Feelisch & Stamler, eds., John Wiley & Sons, Chichester, England, pp 567-581. • * Trongvanbichnam K., et al., Jpn. J. Pharmacol. 71 (1996); 167-173. • * Sales, E., at al., Eur. J. Pharmacol. 258 (1994); 47-55.
The different compounds are tested at 5 different concentrations, at a concentration range from 0.0001 to 10 mM, using from 6 to 9 arterial rings for each compound. The obtained results are compared to those from the isosorbide 5-mononitrate, which is used as reference product.
The results are shown in table 1 below and are provided as EC50 (effective concentration 50), which is the concentration of each of the tested, compounds yielding a vasodilatation equal to 50% of the maximum tone at which the artery ring has been contracted with 1 μM of Phenylephrine.

HUVEC cells = assay: In vitro protection against cytotoxicity induced by oxygen radicals (peroxynitrite), XTT method; type: cell-based, human; details: HUVEC pre-treated with 50 μM compound for one hour, then 800 μM peroxynitrite overnight
From the text: The method used is substantially the same as described by Caveda L., et al. (J. Clin. Invest. […]; 98: 886-893).
For the determination of the capacity to inhibit the cytotoxicity induced by oxygen radicals Human Umbilical Vein Endothelial Cells (HUVEC) were used. HUVEC were isolated and cultured in M199 and 20% FCS (Fetal Calf Serum).
Test XTT assay is based on […] by the metabolically active cells of the salt of tetrazolio XTT to form an orange product, the formazan dye formed is soluble and is directly quantified using an spectrophotometer.
HUVEC cells were cultivated until a sub-confluence status in a 96 well tissue culture plate and pre-treated with 50 μM of the compound for one hour. After that, cells were treated with 800 μM of peroxynitrite for an overnight.
After overnight incubation cells were incubated with the yellow XTT solution (final concentration 0.3 mg/ml) for 4 hours. After this incubation period, orange formazan solution was formed, which was spectrophotometrically quantified using an ELISA plate reader at 450 nm
The results are shown in table 15 and are expressed as percentage of death cells.

[2] = system: heparinized plasma (plasma lipoproteins); assay: Inhibition of plasma oxidation induced by Cu2+ (absorbance 234 nm); type: biochemical; details: compounds at 10 μM; 50 μM CuSO4; mean ± s.e.m.
Protocol: The method used in the assays to determine the effect of compounds on the capacity of oxidation of the plasma is substantially the same as described in Spranger T. et al., Chem Phys Lipids 1998; 91: 39-52.
Lipoprotein oxidation induced in vitro in plasma is expected to represent a relevant model of the lipoprotein oxidation in the arterial wall. Oxidation of plasma lipoproteins was assessed as the capacity of oxidation of heparinized plasma and was measured by spectrophotometry as in increase in absorbance at 234 nm. The compounds were added in vitro to determine their inhibitory activity over the capacity of oxidation of plasma induced by Cu^2+ (CuSO4). Heparinized plasma was diluted with phosphate-buffered saline solution (PBS) containing 0.16 M NaCl, and the oxidation was started by 50 μM CuSO4. Experimental samples were incubated at 37° C. and the increase in absorbance at 234 nm was automatically recorded every 15 min for at least 12 h. The effect of compounds over the capacity of oxidation of plasma induced by Cu^2+ was tested at 7 different concentrations using heparinizaded plasma from 7 different healthy donors.

[3] = system: platelets (Human Platelet Rich Plasma); assay: In vitro inhibition of ADP-induced platelet aggregation; type: cell-based; details: submaximal ADP (1-4 μM), mean ± s.d.
Protocol: The method used in the assays is substantially the same as described in following reference: • * Sales, E., at al., Br. J. Pharmacol. 112 (1994); 1071-1076.
The compounds are tested at four different concentrations, using platelet rich plasma from not less than 6 different healthy human donors. The results obtained are compared to those from 5-isosorbide mononitrate, which is used as reference product.
The results are shown in table 2 and are expressed as IC50 (inhibitory concentration 50), which is the concentration of each of the tested compounds yielding an inhibition equal to 50% of the aggregation obtained with a submaximal concentration (1-4 μM) of ADP (a submaximal concentration of ADP is the minimal amount of ADP which produces the maximal aggregation).

[4] = system: Rats, left carotid artery thrombosis (FeCl3); assay: In vivo antithrombotic effect, FeCl3 carotid artery thrombosis; parameters: species or system rat; details: single oral dose of 100 mg/Kg; no occlusion during 60 min after FeCl3 patch
Protocol: The method used is substantially the same as described by Kurz (Kurz K. D., et al., Thromb. Res. 1990, 60:269-280) and modified by Feuerstein (Feuerstein G. Z., et al., Artherioscler. Thromb. Vase. Biol. 1999, 19: 2554-25562).
Rats received a single oral dose of 100 mg/Kg of the compounds.
Forty-five minutes after dosing rats were anaesthetized with sodium pentobarbital (40 mg/kg, i.p.) and they were placed later dorsally on a heated (37° C.) surgical board.
The left carotid artery was isolated and a Parafilm 4 sheet (7×20 mm, American National Can) was placed under it. An electromagnetic sounding of flow (Transonic Systems Inc.) was placed on the artery to measure blood flow.
(§1) Sixty minutes after product administration, a paper patch saturated with FeCl3 solution (70%) was placed (and not removed for the whole duration of the experiment) on the left carotid artery downstream from the sounding of flow to initiate thrombosis. The blood flow was controlled during the 60 min later to the application of the patch in the artery.
The vessel was considered totally occluded by the thrombus formed when no blood flow was detected (0.0 ml/min). In this model, thrombus formation usually takes place within 15 to 20 minutes in non-treated animals.

[5] = system: Rats, left carotid artery thrombosis (FeCl3); assay: In vivo synergistic antithrombotic effect, FeCl3 carotid artery thrombosis, single drugs and combinations; parameters: species or system rat; details: for Rate of animals with thrombotic occlusion: control 1
Protocol: The method used is substantially the same as described by Kurz (Kurz K. D., at al., Thromb. Res. 1990, 60: 269-280) and modified by Feuerstein (Feuerstein G. Z., et al., Artherioscler, Thromb. Vasc. Biol. 1999, 19: 2554-25562). […]
Forty-five minutes after dosing administration, rats were anaesthetized with sodium pentobarbital (40 mg/kg, i.p.) and they were placed later dorsally on a heated (37° C.) surgical board.
The left carotid artery was isolated and a Parafilm M sheet (7×20 mm, American National Can) was placed under it. An electromagnetic sounding of flow (Transonic Systems Inc.) was placed on the artery to measure blood flow.
as §1
The vessel was considered totally occluded by the thrombus formed when no blood flow was detected (0.0 ml/min). In this model, occlusive thrombus formation usually takes place within 15 to 20 minutes in non-treated animals.
The fractional product concept was used to identify synergy between the compounds. In accordance with this concept, if we consider the full protection of the animal as:
[formula] where A is the rate of animals with thrombotic occlusion in treated group; and B is the rate of animals with thrombotic occlusion in the control group.
For two drugs that act of independent way:
[formula] where A1 is the rate of animals with thrombotic occlusion in the treatment group A1; A2 is the rate of animals with thrombotic occlusion in the treatment group A2; and B is the rate of animals with thrombotic occlusion in the control group
If the protection obtained with the combination of the drugs is higher than the fractional inhibition for two compounds acting independently then synergism is considered to occur.
The results are shown in table 14 and are expressed as rate of animals with thrombotic occlusion in each group.

LDL = assay: Inhibition of LDL oxidation induced by haemin and H2O2 (conjugated dienes, 234 nm); type: biochemical, human; details: compounds at 10 μM; 2.5 μM haemin and 5 μM H2O2; mean ± s.e.m.
From the text: The method used in the assays to determine the effect of the compounds on LDL oxidation is substantially the same as described in the following references: • Sprenger T., et al., Chem. Phys. Lipids 1998; 91:39-52 • Lynch S. M., et al., Biochim. Biophys. Acta 2000; 1485:11-22 • Pedreño J., et al., Thromb. Res. 2000; 99: 51-60.
The method used in the assays to isolate LDL particles from fresh human plasma is substantially the same as described in Pedreño J., et al., Atherosclerosis 2001; 155: 99-112.
Oxidative modification of low-density lipoprotein (LDL) is currently believed to be a central event it the development of atherosclerotic cardiovascular disease. The exposition of LDL to globin-free haemin (the complex of ferric ion (Fe^3+) with protoporphyrin IX), derived from the haemoglobin in circulating erythrocytes, serves as a physiological source of pro-oxidant Fe^3+ capable to promoting LDL oxidation. The compounds were added in vitro to determine their inhibitory activity on LDL oxidation induced by haemin and H2O2. LDL at a final protein concentration of 0.2 mg/ml was incubated in the presence of 2.5 μM haemin and 5 μM H202. Oxidative modification of LDL particles was assessed by measurement of conjugated dienes. Experimental samples were incubated at 37° C. and the increase in absorbance at 234 nm was automatically recorded every 5 min for at least 5 h. The effect of compounds on the LDL oxidation induced by haemin was tested at 7 different concentrations using LDL preparations from 7 different healthy donors.

[6] = artery ring contracted with 1 μM Phenylephrine, mean ± s.d.
[7] = Acetyl salicylic acid 100 mg/Kg/day, oral, for 3 days
[8] = Clopidogrel 1.5 mg/Kg/day, oral for 3 days

## 2-thioisosorbide [(9)]
[1]; 20 mg/kg
  Protection of S-wave decrement: 64%
  S-wave decrement: 16.5 ± 9.8 μV
[1]; 100 mg/kg
  Protection of S-wave decrement: 79%
  S-wave decrement: 9.7 ± 4.6 μV
Arterial rings; [6]
  EC50: 24 ± 5 µM

## C[S@@+]([O-])[C@H]1CO[C@H]2[C@@H]1OC[C@H]2O[N+](=O)[O-] (as salt: nitrate) [(4), 2-[(R)-methylsulfinyl]isosorbide 5-mononitrate]
other
  melting point: 115 °C

## O=[N+]([O-])O[C@@H]1CO[C@H]2[C@@H]1OC[C@@H]2SS[C@H]1CO[C@H]2[C@@H]1OC[C@H]2O[N+](=O)[O-] [(2), 5,5′-dinitrato-2,2′-dithiodiisosorbide]
HUVEC cells
  % of death cells: 80%
Arterial rings
  EC50: 5.3 ± 1 µM
[2]
  % of increment of lag phase with respect to control (plasma oxidation): 7 ± 1%
[3]
  IC50: 10 ± 7 µM

## CS[C@H]1CO[C@H]2[C@@H]1OC[C@H]2O[N+](=O)[O-] [(3), 2-methylthioisosorbide 5-mononitrate]
HUVEC cells
  % of death cells: 80%
Arterial rings; [6]
  EC50: 43 ± 6 µM
[4]
  % of animals fully protected: 100%
[3]
  IC50: 410 ± 90 µM

## C[S@@+]([O-])[C@H]1CO[C@H]2[C@@H]1OC[C@H]2O[N+](=O)[O-] [(4), 2-[(R)-methylsulfinyl]isosorbide 5-mononitrate]
[1]; 20 mg/kg
  Protection of S-wave decrement: 21%
  S-wave decrement: 36.5 ± 11.6 μV
[1]; 100 mg/kg
  Protection of S-wave decrement: 87%
  S-wave decrement: 5.9 ± 3.9 μV
Arterial rings; [6]
  EC50: 338 ± 10 µM
[4]
  % of animals fully protected: 80%
[3]
  IC50: 1000 ± 10 µM

## C[S@+]([O-])[C@H]1CO[C@H]2[C@@H]1OC[C@H]2O[N+](=O)[O-] [(4bis), 2-[(S)-methylsulfinyl]isosorbide 5-mononitrate]
[3]
  IC50: 850 ± 150 µM

## O=NS[C@H]1CO[C@H]2[C@@H]1OC[C@H]2O[N+](=O)[O-] [(6), S-nitroso-2-thioisosorbide 5-mononitrate]
Arterial rings; [6]
  EC50: 1.2 ± 0.1 µM
[3]
  IC50: 1.9 ± 0.5 µM

## O=[N+]([O-])O[C@@H]1CO[C@H]2[C@@H]1OC[C@@H]2SC1CCCCO1 (stereo partly shown) [(7), 2-(tetrahydropyran-2-yl-thio)isosorbide 5-mononitrate]
Arterial rings; [6]
  EC50: 50 ± 9 µM
[3]
  IC50: 580 ± 21 µM

## CC(=O)Oc1ccccc1C(=O)O [Acetyl salicylic acid]
[5]; [7]
  % of animals protected: (50%)
  Rate of animals with thrombotic occlusion: 0.50

## COC(=O)[C@H](c1ccccc1Cl)N1CCc2sccc2C1 [Clopidogrel]
[5]; [8]
  % of animals protected: (50%)
  Rate of animals with thrombotic occlusion: 0.50

## O=[N+]([O-])O[C@@H]1CO[C@H]2[C@@H]1OC[C@@H]2O [Isosorbide 5-mononitrate, reference compound]
Arterial rings; [6]
  EC50: 920 ± 200 µM
[2]
  % of increment of lag phase with respect to control (plasma oxidation): 0%
[3]
  IC50: 2680 ± 330 µM
LDL
  % of increment of lag phase with respect to control (LDL oxidation): 0%
